Where a SMILES comes first, the peptide text is derived from it. [ ]: non-standard residue; d: D form. The star is where a group is joined. Phe(4-guanidino) = N=C(N)Nc1ccc(C[C@H](N)C(=O)O)cc1; Benzoyl(4-Ph) = O=C(c1ccc(-c2ccccc2)cc1)*; Palmitoyl = CCCCCCCCCCCCCCCC(=O)*; Myristoyl = CCCCCCCCCCCCCC(=O)*; Lauroyl = CCCCCCCCCCCC(=O)*; hLys = NCCCCC[C@H](N)C(=O)O; β3hK = NCCCC[C@H](N)CC(=O)O; X1 = FC(F)(F)c1ccc(CN*)cc1
Target: T1, DENV protease (Dengue virus type 2, UniProt P29990)
T1 construct: The virus-encoded dengue protease comprises the amino-terminal 180 amino acids of NS3 (NS3pro) of the polyprotein
Assay: biochemical
Conditions: at 1 μM; read-out: inhibition of DENV
Procedure: Dilutions were made starting from 10 mM stock solutions in DMSO and final concentrations were measured in triplicates. The inhibitors were preincubated for 15 min with DENV protease (100 nM) in the assay buffer (50 mM Tris-HCl pH 9.0, ethylene glycol (10% v/v), and 0.0016% Brij 58). The enzymatic reaction was initiated by the addition of the FRET substrate (final concentration 50 μM) to obtain a final assay volume of 100 μL per well. The enzymatic activity was monitored for 15 min and determined as a slope of relative fluorescence units per second (RFU/s) for each concentration. The mean of the triplicates were plotted against the corresponding concentration in CDDVault to determine the IC50-values. Analogous procedures were used to determine the inhibitory potency on WNV (Kühl et al., J. Med. Chem. 2020, 63 (15): 8179-8197) and ZIKA protease (Nitsche et al., ACS Med. Chem. Lett. 2019 Feb. 14; 10 (2): 168-174). For selectivity screening of active candidates, similar biochemical assays with human serine proteases trypsin (Weigel et al., J. Med. Chem. 2015, 58 (19), 7719-7733.) and/or thrombin (Nitsche et al., J. Med. Chem. 2013, 56 (21), 8389-8403) were used.

T1 sequence (P29990 1398-1437): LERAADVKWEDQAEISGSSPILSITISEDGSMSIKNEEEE
T1 sequence (P29990 1476-1653): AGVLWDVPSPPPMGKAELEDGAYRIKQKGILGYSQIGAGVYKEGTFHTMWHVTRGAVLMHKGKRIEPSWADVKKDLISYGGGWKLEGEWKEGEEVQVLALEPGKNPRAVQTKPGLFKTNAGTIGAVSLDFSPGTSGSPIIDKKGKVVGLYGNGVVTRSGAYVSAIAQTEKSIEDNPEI

| inhibition at 1 µM [%] | SMILES |
| --- | --- |
| ≥ 20 | CCCCCCCCCCCCCCCC(=O)N[C@@H](CCCCN)C(=O)N[C@@H](C)C(=O)N[C@@H](C)C(=O)N[C@@H](CCc1c[nH]cn1)C(N)=O [compound 172] |
| ≥ 20 | CCCCCCCCCCCCCCCC(=O)N[C@@H](CCCCN)C(=O)N[C@@H](C)C(=O)N[C@@H](C)C(=O)N[C@H](CCc1c[nH]cn1)C(N)=O [compound 173] |

| SMILES | inhibition at 1 µM [%] |
| --- | --- |
| CCCCCCCCCCCCCCCC(=O)N[C@@H](C)C(=O)N[C@@H](CCCCN)C(=O)N[C@@H](C)C(=O)N[C@H](C)C(N)=O [compound 148] (Palmitoyl-AKA[dA]-NH2) | ≥ 20 |

Same assay, conditions: at 50 μM; read-out: inhibition of DENV

| SMILES | inhibition at 50 µM [%] |
| --- | --- |
| CCCCCCCCCCCCCCCC(=O)N[C@@H](Cc1ccc(NC(=N)N)cc1)C(=O)N[C@@H](CCC(N)=O)C(=O)N[C@@H](Cc1ccccc1)C(N)=O [compound 68] (Palmitoyl-[Phe(4-guanidino)]-Gln-Phe-NH2) | ≥ 25 |
| CCCCCCCCCCCCCCCC(=O)N[C@@H](C)CC(=O)N[C@@H](CCCNC(=N)N)C(=O)N[C@@H](CCC(N)=O)CC(=O)N[C@@H](CCCCN)C(N)=O [compound 72] | ≥ 25 |
| CCCCCCCCCCCCCCCC(=O)N[C@@H](CCCCN)CC(=O)N[C@@H](C)C(=O)N[C@@H](C)C(=O)N[C@@H](CCCCN)C(N)=O [compound 82] (Palmitoyl-[β3hK]AAK-NH2) | ≥ 25 |
| CCCCCCCCCCCCCCCCNC(=O)[C@H](CCCCN)NC(=O)C[C@H](C)NC(=O)[C@H](C)NC(=O)C[C@@H](N)CCCCN [compound 83] | ≥ 25 |
| C[C@H](NC(=O)[C@H](C)NC(=O)[C@H](CCCCN)NC(=O)c1ccc(-c2ccccc2)cc1)C(=O)N[C@@H](CCCCN)C(=O)NCc1ccc(C(F)(F)F)cc1 [compound 89] ({Benzoyl(4-Ph)}-KAAK-X1) | ≥ 25 |
| CCCCCCCCCCCCCCCC(=O)N[C@@H](CCCCN)CC(=O)N[C@@H](C)C(=O)N[C@@H](C)CC(=O)N[C@H](CCc1ccccc1)C(N)=O [compound 91] | ≥ 25 |
| CCCCCCCCCCCCCCCC(=O)N[C@@H](CCCCN)C(=O)N[C@@H](C)C(=O)N[C@@H](C)C(=O)N[C@H](Cc1c[nH]c2ccccc12)C(N)=O [compound 93] (Palmitoyl-KAA[dW]-NH2) | ≥ 25 |
| CCCCCCCCCCCCCCCC(=O)N[C@@H](CCCCN)C(=O)N[C@@H](C)C(=O)N[C@@H](CCCCN)C(N)=O [compound 97] (Palmitoyl-Lys-Ala-Lys-NH2) | ≥ 25 |
| CCCCCCCCCCCCCCCCNC(=O)[C@H](CCCCN)NC(=O)[C@H](C)NC(=O)[C@@H](N)CCCCN [compound 98] | ≥ 25 |
| CCCCCCCCCCCCCCCC(=O)N[C@@H](CCCCN)C(=O)N[C@@H](CCCCN)C(N)=O [compound 110] | ≥ 25 |
| CCCCCCCCCCCCCCCC(=O)N[C@@H](CCCCN)C(=O)N[C@@H](CCCNC(=N)N)C(N)=O [compound 111] (Palmitoyl-Lys-Arg-NH2) | ≥ 25 |
| CCCCCCCCCCCCCCCC(=O)N[C@@H](CCCNC(=N)N)C(=O)N[C@@H](CCCNC(=N)N)C(N)=O [compound 112] (Palmitoyl-Arg-Arg-NH2) | ≥ 25 |
| CCCCCCCCCCCCCCCC(=O)N[C@@H](CCCCN)CC(=O)N1CCC[C@H]1C(=O)N[C@@H](C)C(=O)N[C@H](CCCCN)C(N)=O [compound 119] (Palmitoyl-[β3hK]PA[dK]-NH2) | ≥ 25 |
| CCCCCCCCCCCCCCCC(=O)N[C@@H](CCCCN)CCN1CCC[C@H]1CC(=O)N[C@@H](C)C(=O)N[C@@H](Cc1c[nH]c2ccccc12)C(N)=O [compound 120] | ≥ 25 |
| CCCCCCCCCCCCCCCC(=O)N[C@@H](CCCCCN)C(=O)N1CCC[C@H]1C(=O)N[C@@H](CCCCN)C(N)=O [compound 121] (Palmitoyl-[hLys]-Pro-Lys-NH2) | ≥ 25 |
| CCCCCCCCCCCCCCCC(=O)N[C@@H](CCCCN)C(=O)N1CCC[C@H]1C(=O)N[C@@H](C)C(=O)N[C@@H](CCCCN)C(=O)O [compound 126] (Palmitoyl-KPAK-OH) | ≥ 25 |
| CCCCCCCCCCCCCCCC(=O)N[C@@H](CCCCN)C(=O)N1CCC[C@H]1C(=O)N[C@@H](C)C(=O)N[C@@H](CCCCN)C(=O)NS(=O)(=O)C1CC1 [compound 127] | ≥ 25 |
| CCCCCCCCCCCCCCCC(=O)N[C@@H](CCCCN)C(=O)N1CCC[C@H]1C(=O)N[C@@H](C)C(=O)N[C@@H](CCCCN)C(=O)c1ccccc1 [compound 128] | ≥ 25 |
| CCCCCCCCCCCCCCCC(=O)N[C@@H](CCCCN)C(=O)N1CCC[C@H]1C(=O)N[C@@H](C)C(=O)N[C@H](C(N)=O)c1ccc(OCc2ccccc2)cc1 [compound 130] | ≥ 25 |
| CCCCCCCCCCCCCCCC(=O)N[C@@H](CCCCN)C(=O)N[C@@H](C)C(=O)N1CCC[C@H]1C(=O)N[C@@H](CCCCN)C(N)=O [compound 133] (Palmitoyl-KAPK-NH2) | ≥ 25 |
| CCCCCCCCCCCCCCCC(=O)N[C@@H](CCCCN)C(=O)N[C@@H](C)C(=O)N[C@@H](C)C(=O)N[C@H](CCCCN)C(=O)O [compound 134] (Palmitoyl-KAA[dK]-OH) | ≥ 25 |

| SMILES | inhibition at 50 µM [%] |
| --- | --- |
| CCCCCCCCCCCCCCCC(=O)N[C@@H](CCCCN)C(=O)N[C@@H](C)C(=O)N[C@@H](C)C(=O)N[C@H](CCCCN)C(=O)NS(=O)(=O)C1CC1 [compound 135] | ≥ 25 |
| CCCCCCCCCCCCCCCC(=O)N[C@@H](CCCCN)C(=O)N[C@@H](C)C(=O)N[C@@H](C)C(=O)N[C@@H](C(N)=O)c1ccc(OCc2ccccc2)cc1 [compound 138] | ≥ 25 |
| CCCCCCCCCCCCCCCC(=O)N[C@@H](CCCCN)C(=O)N[C@@H](C)C(=O)N[C@@H](C)C(=O)N[C@H](C(N)=O)c1ccc(OCc2ccccc2)cc1 [compound 139] | ≥ 25 |
| CCCCCCCCCCCCCCCC(=O)N[C@@H](CCCCN)C(=O)N[C@H](C)C(=O)N[C@@H](CCCCN)C(N)=O [compound 146] (Palmitoyl-Lys-[dA]-Lys-NH2) | ≥ 25 |
| CCCCCCCCCCCCCCCC(=O)N[C@@H](CCCCN)C(=O)N[C@@H](C)C(=O)N[C@@H](C)C(=O)N[C@H](C)C(N)=O [compound 147] (Palmitoyl-KAA[dA]-NH2) | ≥ 25 |
| CCCCCCCCCCCCCCCC(=O)N[C@@H](C)C(=O)N[C@@H](CCCCN)C(=O)N[C@@H](C)C(=O)N[C@H](C)C(N)=O [compound 148] (Palmitoyl-AKA[dA]-NH2) | ≥ 25 |
| CCCCCCCCCCCCCCCC(=O)N[C@@H](C)C(=O)N[C@@H](C)C(=O)N[C@@H](CCCCN)C(=O)N[C@H](C)C(N)=O [compound 149] (Palmitoyl-AAK[dA]-NH2) | ≥ 25 |
| CCCCCCCCCCCCCCCC(=O)N[C@@H](C)C(=O)N[C@@H](C)C(=O)N[C@@H](C)C(=O)N[C@H](CCCCN)C(N)=O [compound 150] (Palmitoyl-AAA[dK]-NH2) | ≥ 25 |
| CCCCCCCCCCCCCC(=O)N[C@@H](CCCCN)C(=O)N[C@@H](C)C(=O)N[C@@H](C)C(=O)N[C@H](CCCCN)C(N)=O [compound 151] (Myristoyl-KAA[dK]-NH2) | ≥ 25 |
| CCCCCCCCCCCC(=O)N[C@@H](C)C(=O)N[C@@H](CCCCN)C(=O)N[C@@H](C)C(=O)N[C@H](C)C(N)=O [compound 152] (Lauroyl-AKA[dA]-NH2) | ≥ 25 |
| CCCCCCCCCCCCCCCC(=O)N[C@@H](CCCCN)C(=O)N[C@H](C)C(=O)N[C@@H](C)C(=O)N[C@@H](CCCCN)C(N)=O [compound 158] (Palmitoyl-K[dA]AK-NH2) | ≥ 25 |
| CCCCCCCCCCCCCCCC(=O)N[C@H](CCCCN)C(=O)N[C@@H](C)C(=O)N[C@@H](CCCCN)C(N)=O [compound 159] (Palmitoyl-[dK]-Ala-Lys-NH2) | ≥ 25 |
| CCCCCCCCCCCCCCCC(=O)N[C@@H](CCCCN)C(=O)N[C@@H](C)C(=O)N[C@H](CCCCN)C(N)=O [compound 160] (Palmitoyl-Lys-Ala-[dK]-NH2) | ≥ 25 |
| CCCCCCCCCCCCCCCC(=O)N[C@@H](CCCNC(=N)N)C(=O)N[C@@H](CCCCN)C(N)=O [compound 161] (Palmitoyl-Arg-Lys-NH2) | ≥ 25 |
| CCCCCCCCCCCCCCCC(=O)N[C@@H](CCCCN)C(=O)N[C@@H](Cc1c[nH]cn1)C(N)=O [compound 162] | ≥ 25 |
| CCCCCCCCCCCCCCCC(=O)N[C@@H](CCCCN)C(=O)N1CCC[C@H]1C(=O)N[C@@H](C)C(=O)N[C@@H](Cc1c[nH]cn1)C(N)=O [compound 163] (Palmitoyl-KPAH-NH2) | ≥ 25 |
| CCCCCCCCCCCCCCCC(=O)N[C@@H](CCCCN)C(=O)N1CCC[C@H]1C(=O)N[C@@H](C)C(=O)N[C@H](Cc1c[nH]cn1)C(N)=O [compound 164] (Palmitoyl-KPA[dH]-NH2) | ≥ 25 |
| CCCCCCCCCCCCCCCC(=O)N[C@@H](CCCCN)C(=O)N1CCC[C@H]1C(=O)N[C@@H](C)C(=O)N[C@@H](CCc1c[nH]cn1)C(N)=O [compound 165] | ≥ 25 |
| CCCCCCCCCCCCCCCC(=O)N[C@@H](CCCCN)C(=O)N[C@@H](C)C(=O)N[C@@H](Cc1cnc[nH]1)C(N)=O [compound 166] (Palmitoyl-Lys-Ala-His-NH2) | ≥ 25 |
| CCCCCCCCCCCCCCCC(=O)N[C@@H](CCCCN)C(=O)N[C@@H](C)C(=O)N[C@@H](C)C(=O)N[C@@H](CCc1c[nH]cn1)C(N)=O [compound 172] | ≥ 25 |
| CCCCCCCCCCCCCCCC(=O)N[C@@H](CCCCN)C(=O)N[C@@H](C)C(=O)N[C@@H](C)C(=O)N[C@H](CCc1c[nH]cn1)C(N)=O [compound 173] | ≥ 25 |

Same assay, conditions: read-out: inhibition of DENV

| SMILES | inhibition at 50 µM [%] |
| --- | --- |
| C[C@H](NC(=O)[C@H](CCCCN)NC(=O)c1ccc(-c2ccccc2)cc1)C(=O)N[C@@H](CCCCN)CC(=O)NCc1ccc(C(F)(F)F)cc1 [compound 78] | ≥ 25 |

From patent US20250059231A1, “Protease inhibitors” (priority 2021, published 2025)
